Measurements taken from PMC4979471 (Cell Death Discovery, 2015).
Where two headings read alike, the source gives them in different places.

Experiments:
Assay in all cases: Kinase selectivity, P33-radiolabeled assay
Format in all cases: biochemical
Details in all cases: 10 μM ATP
[1] = molecular target: T1, FGFR1 (Homo sapiens, UniProt P11362)
T1 construct: purchased Reaction Biology Corp
In short: (§1)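 Each enzyme was exposed to 10 μM compound, with duplicate measurements, in reactions containing 10 μM ATP. Numbers are remaining activity as a percent of the vehicle (DMSO) signal.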

[2] = molecular target: T2, EPHB4 (Homo sapiens, UniProt P54760)
T2 construct: purchased Reaction Biology Corp
T2 sequence (P54760 16-987): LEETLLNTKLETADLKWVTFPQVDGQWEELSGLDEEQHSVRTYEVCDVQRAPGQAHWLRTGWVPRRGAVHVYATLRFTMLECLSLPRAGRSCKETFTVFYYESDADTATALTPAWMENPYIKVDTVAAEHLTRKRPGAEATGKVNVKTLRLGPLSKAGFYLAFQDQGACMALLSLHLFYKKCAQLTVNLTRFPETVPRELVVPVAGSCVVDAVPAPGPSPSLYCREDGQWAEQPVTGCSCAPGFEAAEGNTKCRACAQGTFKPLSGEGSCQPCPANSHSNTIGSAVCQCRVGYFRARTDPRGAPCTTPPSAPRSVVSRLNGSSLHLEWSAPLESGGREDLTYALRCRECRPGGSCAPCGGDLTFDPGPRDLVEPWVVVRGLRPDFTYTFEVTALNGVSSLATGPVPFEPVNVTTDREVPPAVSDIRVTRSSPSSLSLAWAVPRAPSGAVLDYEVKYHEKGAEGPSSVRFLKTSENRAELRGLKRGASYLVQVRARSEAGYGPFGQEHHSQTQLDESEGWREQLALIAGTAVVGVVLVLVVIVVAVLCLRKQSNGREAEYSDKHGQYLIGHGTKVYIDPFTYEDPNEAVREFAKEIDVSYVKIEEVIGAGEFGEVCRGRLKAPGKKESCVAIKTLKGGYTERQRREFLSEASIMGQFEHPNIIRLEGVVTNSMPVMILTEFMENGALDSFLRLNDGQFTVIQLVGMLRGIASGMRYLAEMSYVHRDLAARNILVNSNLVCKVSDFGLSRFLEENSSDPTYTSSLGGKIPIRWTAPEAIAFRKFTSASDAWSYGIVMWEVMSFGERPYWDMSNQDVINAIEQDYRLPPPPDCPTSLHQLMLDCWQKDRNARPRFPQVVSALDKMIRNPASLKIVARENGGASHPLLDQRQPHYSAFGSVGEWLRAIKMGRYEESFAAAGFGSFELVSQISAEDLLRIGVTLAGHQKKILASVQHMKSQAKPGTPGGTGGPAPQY
In short: as §1

[3] = molecular target: T3, c-Kit (Homo sapiens, UniProt P10721)
T3 construct: purchased Reaction Biology Corp
T3 sequence (P10721 26-976): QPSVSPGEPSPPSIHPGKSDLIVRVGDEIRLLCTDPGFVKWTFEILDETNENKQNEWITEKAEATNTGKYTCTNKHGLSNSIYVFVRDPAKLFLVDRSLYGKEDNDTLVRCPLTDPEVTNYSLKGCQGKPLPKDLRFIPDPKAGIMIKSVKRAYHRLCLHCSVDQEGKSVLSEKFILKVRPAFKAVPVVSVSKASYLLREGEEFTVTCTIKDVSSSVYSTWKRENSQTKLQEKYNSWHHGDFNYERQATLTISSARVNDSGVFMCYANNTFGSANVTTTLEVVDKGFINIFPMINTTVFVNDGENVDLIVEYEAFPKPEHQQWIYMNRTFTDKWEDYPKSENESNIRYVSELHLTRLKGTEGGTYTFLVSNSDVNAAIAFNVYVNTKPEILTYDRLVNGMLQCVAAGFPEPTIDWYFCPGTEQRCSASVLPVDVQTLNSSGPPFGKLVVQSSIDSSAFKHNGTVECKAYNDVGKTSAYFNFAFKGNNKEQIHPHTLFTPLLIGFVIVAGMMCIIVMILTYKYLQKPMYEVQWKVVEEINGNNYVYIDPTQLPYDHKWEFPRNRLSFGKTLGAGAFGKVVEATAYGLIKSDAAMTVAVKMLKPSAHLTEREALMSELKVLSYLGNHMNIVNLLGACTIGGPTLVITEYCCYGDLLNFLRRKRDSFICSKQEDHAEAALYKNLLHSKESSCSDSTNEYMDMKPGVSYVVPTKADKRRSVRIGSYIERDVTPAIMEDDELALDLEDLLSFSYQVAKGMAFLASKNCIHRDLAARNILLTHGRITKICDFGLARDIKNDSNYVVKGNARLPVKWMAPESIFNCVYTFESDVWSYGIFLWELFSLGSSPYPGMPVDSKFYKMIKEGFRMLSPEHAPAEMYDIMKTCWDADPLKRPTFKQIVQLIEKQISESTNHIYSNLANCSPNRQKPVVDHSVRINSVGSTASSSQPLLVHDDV
In short: as §1

[4] = molecular target: T4, SIK1 (Homo sapiens, UniProt P57059)
T4 construct: purchased Reaction Biology Corp
T4 sequence (P57059 whole entry): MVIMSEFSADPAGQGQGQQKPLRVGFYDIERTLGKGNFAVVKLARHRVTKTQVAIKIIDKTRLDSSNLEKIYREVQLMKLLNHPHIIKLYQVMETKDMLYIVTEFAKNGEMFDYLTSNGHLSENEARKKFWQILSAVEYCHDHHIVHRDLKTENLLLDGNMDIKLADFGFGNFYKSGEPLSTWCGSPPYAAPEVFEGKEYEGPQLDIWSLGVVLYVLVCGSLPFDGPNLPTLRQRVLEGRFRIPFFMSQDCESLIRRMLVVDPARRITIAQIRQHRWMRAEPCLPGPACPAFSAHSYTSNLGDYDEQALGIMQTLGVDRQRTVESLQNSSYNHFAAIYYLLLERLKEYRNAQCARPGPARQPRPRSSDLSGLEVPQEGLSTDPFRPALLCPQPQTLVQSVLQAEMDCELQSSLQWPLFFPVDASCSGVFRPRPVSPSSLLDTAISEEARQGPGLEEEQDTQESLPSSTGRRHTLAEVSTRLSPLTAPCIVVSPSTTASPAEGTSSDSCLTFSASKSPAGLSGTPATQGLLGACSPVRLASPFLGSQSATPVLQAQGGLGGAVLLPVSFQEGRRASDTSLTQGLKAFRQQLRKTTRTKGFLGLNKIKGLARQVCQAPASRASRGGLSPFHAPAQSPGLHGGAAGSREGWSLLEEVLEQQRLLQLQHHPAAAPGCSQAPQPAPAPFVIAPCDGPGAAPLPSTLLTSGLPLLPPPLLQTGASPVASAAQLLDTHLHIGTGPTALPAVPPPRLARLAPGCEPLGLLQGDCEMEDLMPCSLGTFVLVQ
In short: as §1

[5] = molecular target: T5, DYRK1B (Homo sapiens, UniProt Q9Y463)
T5 construct: purchased Reaction Biology Corp
T5 sequence (Q9Y463 whole entry): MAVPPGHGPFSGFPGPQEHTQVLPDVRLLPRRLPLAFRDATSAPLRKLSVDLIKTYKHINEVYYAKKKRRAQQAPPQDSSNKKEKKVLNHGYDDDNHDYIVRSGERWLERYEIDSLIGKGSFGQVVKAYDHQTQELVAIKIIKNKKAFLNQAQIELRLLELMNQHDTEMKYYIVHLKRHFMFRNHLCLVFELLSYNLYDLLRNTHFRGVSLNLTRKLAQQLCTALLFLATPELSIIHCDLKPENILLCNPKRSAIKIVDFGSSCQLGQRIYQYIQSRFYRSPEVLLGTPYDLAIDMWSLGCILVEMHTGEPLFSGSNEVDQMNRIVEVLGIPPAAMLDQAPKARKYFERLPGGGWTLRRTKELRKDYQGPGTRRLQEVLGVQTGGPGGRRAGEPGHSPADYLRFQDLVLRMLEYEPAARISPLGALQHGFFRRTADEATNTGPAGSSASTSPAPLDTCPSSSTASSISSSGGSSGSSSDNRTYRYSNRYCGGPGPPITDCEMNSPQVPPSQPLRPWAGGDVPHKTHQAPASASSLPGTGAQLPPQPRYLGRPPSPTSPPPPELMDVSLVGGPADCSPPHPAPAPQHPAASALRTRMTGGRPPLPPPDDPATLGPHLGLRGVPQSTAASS
In short: as §1

[6] = molecular target: T6, PKCiota (Homo sapiens, UniProt P41743)
T6 construct: purchased Reaction Biology Corp
T6 sequence (P41743 1-596): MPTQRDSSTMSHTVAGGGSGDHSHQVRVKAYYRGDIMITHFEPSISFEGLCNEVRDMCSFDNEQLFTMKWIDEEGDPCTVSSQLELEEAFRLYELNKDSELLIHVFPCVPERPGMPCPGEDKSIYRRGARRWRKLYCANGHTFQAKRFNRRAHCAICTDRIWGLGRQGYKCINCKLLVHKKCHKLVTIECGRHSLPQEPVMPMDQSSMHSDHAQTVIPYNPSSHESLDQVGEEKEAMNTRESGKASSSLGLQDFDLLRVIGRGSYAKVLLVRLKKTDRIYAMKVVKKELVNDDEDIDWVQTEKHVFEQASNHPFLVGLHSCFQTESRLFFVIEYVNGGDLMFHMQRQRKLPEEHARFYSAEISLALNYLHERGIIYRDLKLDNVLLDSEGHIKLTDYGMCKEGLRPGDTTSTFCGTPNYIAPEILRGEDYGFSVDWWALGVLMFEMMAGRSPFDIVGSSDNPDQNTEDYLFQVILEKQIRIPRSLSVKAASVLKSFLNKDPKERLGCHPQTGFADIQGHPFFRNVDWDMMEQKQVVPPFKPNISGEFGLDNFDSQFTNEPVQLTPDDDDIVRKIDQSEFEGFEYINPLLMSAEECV
In short: as §1

[7] = molecular target: T7, FYN (Homo sapiens, UniProt P06241)
T7 construct: purchased Reaction Biology Corp
T7 sequence (P06241 whole entry): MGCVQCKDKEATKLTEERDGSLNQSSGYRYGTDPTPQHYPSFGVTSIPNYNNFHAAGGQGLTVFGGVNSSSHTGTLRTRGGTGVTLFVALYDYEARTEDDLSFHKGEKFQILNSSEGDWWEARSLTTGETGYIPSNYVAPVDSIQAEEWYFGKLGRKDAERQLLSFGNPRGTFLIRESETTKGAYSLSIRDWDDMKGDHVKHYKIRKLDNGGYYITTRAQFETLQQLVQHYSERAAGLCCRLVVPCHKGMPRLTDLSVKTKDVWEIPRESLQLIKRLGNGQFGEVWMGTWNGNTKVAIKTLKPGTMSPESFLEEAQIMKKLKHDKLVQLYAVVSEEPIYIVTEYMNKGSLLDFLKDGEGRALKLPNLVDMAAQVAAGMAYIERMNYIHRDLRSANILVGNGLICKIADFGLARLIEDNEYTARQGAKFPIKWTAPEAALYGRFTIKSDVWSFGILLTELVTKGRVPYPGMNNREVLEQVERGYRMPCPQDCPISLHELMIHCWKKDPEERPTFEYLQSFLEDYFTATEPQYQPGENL
In short: as §1

[8] = molecular target: T8, TYK1/LTK (Homo sapiens, UniProt P29376)
T8 construct: purchased Reaction Biology Corp
T8 sequence (P29376 17-864): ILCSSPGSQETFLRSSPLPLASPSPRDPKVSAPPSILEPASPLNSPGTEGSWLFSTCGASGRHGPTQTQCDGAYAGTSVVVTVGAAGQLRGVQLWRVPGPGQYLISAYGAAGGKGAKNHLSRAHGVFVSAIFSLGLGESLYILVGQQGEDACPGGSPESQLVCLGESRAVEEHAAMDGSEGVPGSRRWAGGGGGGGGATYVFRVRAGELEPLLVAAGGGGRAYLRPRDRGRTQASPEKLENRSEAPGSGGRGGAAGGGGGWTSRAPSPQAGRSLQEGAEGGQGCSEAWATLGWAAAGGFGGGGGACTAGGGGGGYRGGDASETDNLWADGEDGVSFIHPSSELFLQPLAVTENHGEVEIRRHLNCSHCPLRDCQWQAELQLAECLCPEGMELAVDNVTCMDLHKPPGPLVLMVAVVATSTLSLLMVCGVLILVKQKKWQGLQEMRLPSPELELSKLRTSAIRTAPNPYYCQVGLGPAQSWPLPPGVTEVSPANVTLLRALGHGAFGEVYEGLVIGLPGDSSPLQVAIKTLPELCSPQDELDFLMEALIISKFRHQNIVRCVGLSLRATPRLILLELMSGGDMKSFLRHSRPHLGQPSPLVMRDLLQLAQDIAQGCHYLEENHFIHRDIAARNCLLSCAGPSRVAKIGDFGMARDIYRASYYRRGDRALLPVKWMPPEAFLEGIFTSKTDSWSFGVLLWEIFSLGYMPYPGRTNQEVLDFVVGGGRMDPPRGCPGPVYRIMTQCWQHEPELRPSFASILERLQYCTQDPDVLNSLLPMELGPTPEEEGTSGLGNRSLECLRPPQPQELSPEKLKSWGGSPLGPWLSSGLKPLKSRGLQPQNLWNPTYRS
In short: as §1

[9] = molecular target: T9, MEKK3 (Homo sapiens, UniProt Q99759)
T9 construct: purchased Reaction Biology Corp
T9 sequence (Q99759 1-626): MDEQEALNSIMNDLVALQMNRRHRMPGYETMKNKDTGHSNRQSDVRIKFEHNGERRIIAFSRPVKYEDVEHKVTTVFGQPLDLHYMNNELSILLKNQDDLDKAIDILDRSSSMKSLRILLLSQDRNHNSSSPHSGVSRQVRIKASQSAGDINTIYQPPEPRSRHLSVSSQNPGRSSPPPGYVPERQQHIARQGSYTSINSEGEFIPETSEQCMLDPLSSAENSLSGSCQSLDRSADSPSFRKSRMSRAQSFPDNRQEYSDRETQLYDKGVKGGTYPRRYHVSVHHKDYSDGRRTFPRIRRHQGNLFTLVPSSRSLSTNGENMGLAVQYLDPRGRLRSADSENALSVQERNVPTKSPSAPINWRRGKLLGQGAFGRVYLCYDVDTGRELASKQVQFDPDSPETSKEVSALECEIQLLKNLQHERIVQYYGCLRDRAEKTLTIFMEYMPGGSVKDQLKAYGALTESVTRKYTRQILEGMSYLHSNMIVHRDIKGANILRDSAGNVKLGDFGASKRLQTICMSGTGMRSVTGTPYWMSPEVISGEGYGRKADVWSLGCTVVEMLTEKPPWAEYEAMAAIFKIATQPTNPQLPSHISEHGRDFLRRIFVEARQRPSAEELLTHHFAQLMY
In short: as §1

[10] = read-out: % Enzyme Activity (relative to DMSO controls) AVG
[11] = read-out: % Enzyme Activity (relative to DMSO controls) Data 1
[12] = read-out: % Enzyme Activity (relative to DMSO controls) Data 2

T1 sequence (P11362 22-822): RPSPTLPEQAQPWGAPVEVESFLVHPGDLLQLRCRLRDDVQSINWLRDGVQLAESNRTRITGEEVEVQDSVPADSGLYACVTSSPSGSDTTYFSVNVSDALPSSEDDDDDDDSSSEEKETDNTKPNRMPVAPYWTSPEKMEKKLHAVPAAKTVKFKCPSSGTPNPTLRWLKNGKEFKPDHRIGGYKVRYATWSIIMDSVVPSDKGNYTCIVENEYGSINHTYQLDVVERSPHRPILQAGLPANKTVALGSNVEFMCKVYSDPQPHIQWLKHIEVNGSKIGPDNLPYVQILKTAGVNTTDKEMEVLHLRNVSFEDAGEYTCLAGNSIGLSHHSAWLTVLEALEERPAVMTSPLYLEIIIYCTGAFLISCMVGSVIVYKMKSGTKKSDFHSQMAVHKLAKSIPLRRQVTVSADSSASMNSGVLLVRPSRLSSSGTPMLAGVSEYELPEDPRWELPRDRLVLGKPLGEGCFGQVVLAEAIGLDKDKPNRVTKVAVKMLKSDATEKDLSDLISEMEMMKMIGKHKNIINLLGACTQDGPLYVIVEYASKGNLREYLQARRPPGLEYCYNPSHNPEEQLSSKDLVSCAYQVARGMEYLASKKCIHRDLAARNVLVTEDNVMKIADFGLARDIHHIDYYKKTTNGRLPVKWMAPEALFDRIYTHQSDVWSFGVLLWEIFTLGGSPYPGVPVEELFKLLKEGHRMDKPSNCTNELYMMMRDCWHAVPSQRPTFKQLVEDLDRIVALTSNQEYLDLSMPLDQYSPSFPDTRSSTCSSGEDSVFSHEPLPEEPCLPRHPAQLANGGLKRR

CC(C)(C)C(=O)N1N=CC[C@H]1c1ccccc1 [GSK′963]
remaining activity at 10 µM [1, 10]: 95% | remaining activity at 10 µM [1, 11]: 95.2% | remaining activity at 10 µM [1, 12]: 94.8% | remaining activity at 10 µM [2, 10]: 101% | remaining activity at 10 µM [2, 11]: 100% | remaining activity at 10 µM [2, 12]: 101% | remaining activity at 10 µM [3, 10]: 83.6% | remaining activity at 10 µM [3, 11]: 83% | remaining activity at 10 µM [3, 12]: 84.1% | remaining activity at 10 µM [4, 10]: 113% | remaining activity at 10 µM [4, 11]: 113% | remaining activity at 10 µM [4, 12]: 113% | remaining activity at 10 µM [5, 10]: 102% | remaining activity at 10 µM [5, 11]: 103% | remaining activity at 10 µM [5, 12]: 101% | remaining activity at 10 µM [6, 10]: 109% | remaining activity at 10 µM [6, 11]: 105% | remaining activity at 10 µM [6, 12]: 114% | remaining activity at 10 µM [7, 10]: 106% | remaining activity at 10 µM [7, 11]: 104% | remaining activity at 10 µM [7, 12]: 107% | remaining activity at 10 µM [8, 10]: 104% | remaining activity at 10 µM [8, 11]: 104% | remaining activity at 10 µM [8, 12]: 105% | remaining activity at 10 µM [9, 10]: 119% | remaining activity at 10 µM [9, 11]: 122% | remaining activity at 10 µM [9, 12]: 115%
